Measured values as given in ChEMBL document CHEMBL6153041, “Discovery of High-Affinity SMARCA2/4 Bromodomain Ligands and Development of Potent and Exceptionally Selective SMARCA2 PROTAC Degraders” (J Med Chem, 2025).

Legend:
[1] = target: T1, Protein cereblon/SWI/SNF-related matrix-associated actin-dependent regulator of chromatin subfamily A member 4 (Homo sapiens) (UniProt P51532+Q96SW2); test: PROTAC activity at CRBN/SMARCA4 in human RKO cells assessed as degradation measured after 24 hrs by Western blot analysis; assay type: cell-based
[2] = target: T2, Protein cereblon/SWI/SNF-related matrix-associated actin-dependent regulator of chromatin subfamily A member 2 (Homo sapiens, UniProt P51531+Q96SW2); test: PROTAC activity at CRBN/SMARCA2 in human RKO cells assessed as maximal degradation measured after 24 hrs by Western blot analysis relative to control; assay type: cell-based
[3] = target: T2, Protein cereblon/SWI/SNF-related matrix-associated actin-dependent regulator of chromatin subfamily A member 2; test: PROTAC activity at CRBN/SMARCA2 in human RKO cells assessed as degradation measured after 24 hrs by Western blot analysis; assay type: cell-based
[4] = tested on: HeLa; test: Selectivity ratio, ratio of DC50 for VHL1/SMARCA4 in human genetically modified Hela cells to VHL1/SMARCA2 in human genetically modified Hela cells; assay type: cell-based
[5] = target: T3, von Hippel-Lindau disease tumor suppressor/SWI/SNF-related matrix-associated actin-dependent regulator of chromatin subfamily A member 4 (Homo sapiens, UniProt P51532+P40337); test: PROTAC activity at VHL1/SMARCA4 in human genetically modified Hela cells assessed as maximal degradation measured after 24 hrs incubation by Nano-Glo HiBiT Lytic Detection Assay relative to control; assay type: cell-based
Target sequence in this assay (P40337 whole entry, looked up): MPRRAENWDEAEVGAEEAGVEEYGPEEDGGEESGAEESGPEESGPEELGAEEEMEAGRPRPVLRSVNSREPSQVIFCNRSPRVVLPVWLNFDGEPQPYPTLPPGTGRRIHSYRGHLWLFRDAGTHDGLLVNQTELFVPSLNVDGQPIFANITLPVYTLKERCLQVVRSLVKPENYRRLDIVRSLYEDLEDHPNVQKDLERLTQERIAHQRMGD
Target sequence in this assay (P51532 whole entry, looked up): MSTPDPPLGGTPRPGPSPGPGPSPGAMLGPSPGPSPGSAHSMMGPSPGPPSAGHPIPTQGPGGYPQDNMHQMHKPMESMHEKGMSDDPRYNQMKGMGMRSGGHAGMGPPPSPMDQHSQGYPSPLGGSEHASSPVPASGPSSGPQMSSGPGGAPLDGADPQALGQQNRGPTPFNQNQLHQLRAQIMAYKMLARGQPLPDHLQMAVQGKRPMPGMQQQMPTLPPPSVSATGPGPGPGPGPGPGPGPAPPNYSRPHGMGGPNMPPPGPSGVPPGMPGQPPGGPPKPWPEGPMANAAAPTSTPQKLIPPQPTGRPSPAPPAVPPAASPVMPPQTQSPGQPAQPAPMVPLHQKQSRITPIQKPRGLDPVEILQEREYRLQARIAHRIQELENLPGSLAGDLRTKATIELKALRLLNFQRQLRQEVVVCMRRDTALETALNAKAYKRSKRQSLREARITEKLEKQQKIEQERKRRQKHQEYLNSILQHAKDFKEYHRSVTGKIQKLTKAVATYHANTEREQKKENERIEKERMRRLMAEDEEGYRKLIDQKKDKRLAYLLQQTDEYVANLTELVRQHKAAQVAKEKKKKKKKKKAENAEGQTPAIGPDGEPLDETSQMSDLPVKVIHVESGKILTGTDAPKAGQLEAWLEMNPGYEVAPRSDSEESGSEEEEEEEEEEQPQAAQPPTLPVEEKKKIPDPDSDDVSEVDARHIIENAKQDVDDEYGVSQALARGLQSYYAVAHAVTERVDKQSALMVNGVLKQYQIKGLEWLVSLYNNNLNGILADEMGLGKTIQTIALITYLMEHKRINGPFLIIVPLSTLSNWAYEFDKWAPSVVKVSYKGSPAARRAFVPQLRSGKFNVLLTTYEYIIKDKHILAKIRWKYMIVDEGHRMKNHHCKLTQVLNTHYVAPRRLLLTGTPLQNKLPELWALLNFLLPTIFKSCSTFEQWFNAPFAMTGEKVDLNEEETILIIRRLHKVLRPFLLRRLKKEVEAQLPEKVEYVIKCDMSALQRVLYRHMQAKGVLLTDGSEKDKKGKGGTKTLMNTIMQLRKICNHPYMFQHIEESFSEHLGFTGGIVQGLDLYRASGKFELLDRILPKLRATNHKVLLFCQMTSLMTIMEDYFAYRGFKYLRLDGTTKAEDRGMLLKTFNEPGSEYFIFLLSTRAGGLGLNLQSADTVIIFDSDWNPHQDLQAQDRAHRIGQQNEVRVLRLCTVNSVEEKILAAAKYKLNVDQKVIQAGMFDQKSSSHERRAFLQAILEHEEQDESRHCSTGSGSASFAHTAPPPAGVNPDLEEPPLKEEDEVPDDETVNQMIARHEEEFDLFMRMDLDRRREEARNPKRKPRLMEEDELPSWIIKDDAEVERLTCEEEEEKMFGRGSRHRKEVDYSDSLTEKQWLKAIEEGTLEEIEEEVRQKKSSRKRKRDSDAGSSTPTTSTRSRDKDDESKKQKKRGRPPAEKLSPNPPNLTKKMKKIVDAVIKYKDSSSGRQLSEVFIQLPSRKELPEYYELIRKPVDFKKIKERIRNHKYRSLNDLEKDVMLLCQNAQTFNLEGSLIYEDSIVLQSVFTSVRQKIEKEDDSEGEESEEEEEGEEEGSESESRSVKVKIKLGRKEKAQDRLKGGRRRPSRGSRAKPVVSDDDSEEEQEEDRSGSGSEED

[6] = target: T4, von Hippel-Lindau disease tumor suppressor/SWI/SNF-related matrix-associated actin-dependent regulator of chromatin subfamily A member 2 (Homo sapiens, UniProt P51531+P40337); test: PROTAC activity at VHL1/SMARCA2 in human genetically modified Hela cells assessed as maximal degradation measured after 24 hrs incubation by Nano-Glo HiBiT Lytic Detection Assay relative to control; assay type: cell-based
Target sequence in this assay (P40337 whole entry, looked up): as the sequence (P40337 whole entry, looked up) above
Target sequence in this assay (P51531 whole entry, looked up): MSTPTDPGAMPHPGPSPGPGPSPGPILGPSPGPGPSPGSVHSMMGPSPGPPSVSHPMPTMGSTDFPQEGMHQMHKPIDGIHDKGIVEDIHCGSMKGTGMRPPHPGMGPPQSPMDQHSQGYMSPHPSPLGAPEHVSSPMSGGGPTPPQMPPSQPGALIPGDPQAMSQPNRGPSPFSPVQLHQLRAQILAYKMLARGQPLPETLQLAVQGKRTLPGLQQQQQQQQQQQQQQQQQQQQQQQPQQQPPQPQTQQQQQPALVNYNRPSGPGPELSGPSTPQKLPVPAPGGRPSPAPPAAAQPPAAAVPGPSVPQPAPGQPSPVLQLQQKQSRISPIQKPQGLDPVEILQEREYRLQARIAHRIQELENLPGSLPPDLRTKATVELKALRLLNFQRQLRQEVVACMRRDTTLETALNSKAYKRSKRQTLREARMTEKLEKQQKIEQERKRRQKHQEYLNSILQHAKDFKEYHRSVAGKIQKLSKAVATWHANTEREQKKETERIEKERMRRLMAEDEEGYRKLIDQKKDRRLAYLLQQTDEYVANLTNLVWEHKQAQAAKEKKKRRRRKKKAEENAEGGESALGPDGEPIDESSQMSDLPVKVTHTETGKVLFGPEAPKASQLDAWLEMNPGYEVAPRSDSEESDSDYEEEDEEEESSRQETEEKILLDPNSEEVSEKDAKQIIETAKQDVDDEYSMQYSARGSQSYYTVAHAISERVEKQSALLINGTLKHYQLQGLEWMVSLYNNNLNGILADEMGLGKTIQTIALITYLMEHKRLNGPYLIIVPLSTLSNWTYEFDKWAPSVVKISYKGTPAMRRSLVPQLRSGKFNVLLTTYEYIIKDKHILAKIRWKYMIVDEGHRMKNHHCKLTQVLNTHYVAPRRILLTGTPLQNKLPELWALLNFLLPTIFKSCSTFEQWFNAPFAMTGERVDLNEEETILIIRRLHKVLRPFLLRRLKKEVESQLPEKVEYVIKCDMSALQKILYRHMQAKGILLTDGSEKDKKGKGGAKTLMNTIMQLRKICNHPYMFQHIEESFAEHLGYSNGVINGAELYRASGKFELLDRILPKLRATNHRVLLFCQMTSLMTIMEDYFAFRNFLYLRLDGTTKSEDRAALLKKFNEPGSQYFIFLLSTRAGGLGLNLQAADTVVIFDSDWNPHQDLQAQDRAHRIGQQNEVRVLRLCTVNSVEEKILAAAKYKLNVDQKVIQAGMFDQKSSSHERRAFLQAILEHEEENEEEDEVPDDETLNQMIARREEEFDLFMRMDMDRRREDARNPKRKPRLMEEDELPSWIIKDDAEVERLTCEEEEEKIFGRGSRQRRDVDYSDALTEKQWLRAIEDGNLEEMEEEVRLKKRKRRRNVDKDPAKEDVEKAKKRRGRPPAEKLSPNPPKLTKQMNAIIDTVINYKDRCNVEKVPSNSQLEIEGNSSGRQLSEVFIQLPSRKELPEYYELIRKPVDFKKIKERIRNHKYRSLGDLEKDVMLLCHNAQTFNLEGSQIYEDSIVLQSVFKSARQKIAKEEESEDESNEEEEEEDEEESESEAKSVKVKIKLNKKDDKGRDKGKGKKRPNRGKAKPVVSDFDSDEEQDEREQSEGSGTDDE

[7] = target: T3, von Hippel-Lindau disease tumor suppressor/SWI/SNF-related matrix-associated actin-dependent regulator of chromatin subfamily A member 4; test: PROTAC activity at VHL1/SMARCA4 in human genetically modified Hela cells assessed as degradation measured after 24 hrs incubation by Nano-Glo HiBiT Lytic Detection Assay; assay type: cell-based
[8] = target: T4, von Hippel-Lindau disease tumor suppressor/SWI/SNF-related matrix-associated actin-dependent regulator of chromatin subfamily A member 2; test: PROTAC activity at VHL1/SMARCA2 in human genetically modified Hela cells assessed as degradation measured after 24 hrs incubation by Nano-Glo HiBiT Lytic Detection Assay; assay type: cell-based
[9] = target: T1, Protein cereblon/SWI/SNF-related matrix-associated actin-dependent regulator of chromatin subfamily A member 4 (Homo sapiens); test: PROTAC activity at CRBN/SMARCA4 in human RKO cells assessed as maximal degradation measured after 24 hrs by Western blot analysis relative to control; assay type: cell-based
[10] = target: T3, von Hippel-Lindau disease tumor suppressor/SWI/SNF-related matrix-associated actin-dependent regulator of chromatin subfamily A member 4; test: PROTAC activity at VHL/SMARCA4 in human MV4-11 cells assessed as degradation; assay type: cell-based
Target sequence in this assay (P40337 whole entry, looked up): as the sequence (P40337 whole entry, looked up) above
Target sequence in this assay (P51532 whole entry, looked up): as the sequence (P51532 whole entry, looked up) above

[11] = target: T4, von Hippel-Lindau disease tumor suppressor/SWI/SNF-related matrix-associated actin-dependent regulator of chromatin subfamily A member 2; test: PROTAC activity at VHL/SMARCA2 in human MV4-11 cells assessed as maximal degradation relative to control; assay type: cell-based
[12] = target: T3, von Hippel-Lindau disease tumor suppressor/SWI/SNF-related matrix-associated actin-dependent regulator of chromatin subfamily A member 4; test: PROTAC activity at VHL/SMARCA4 in human MV4-11 cells assessed as maximal degradation relative to control; assay type: cell-based
Target sequence in this assay (P40337 whole entry, looked up): as the sequence (P40337 whole entry, looked up) above
Target sequence in this assay (P51532 whole entry, looked up): as the sequence (P51532 whole entry, looked up) above

[13] = target: T3, von Hippel-Lindau disease tumor suppressor/SWI/SNF-related matrix-associated actin-dependent regulator of chromatin subfamily A member 4; test: PROTAC activity at VHL1/SMARCA4 in human NCI-H1792 cells assessed as degradation measured after 24 hrs incubation by Western blot analysis; assay type: cell-based
[14] = target: T3, von Hippel-Lindau disease tumor suppressor/SWI/SNF-related matrix-associated actin-dependent regulator of chromatin subfamily A member 4; test: PROTAC activity at VHL1/SMARCA4 in human genetically modified Hela cells assessed as degradation measured after 8 hrs incubation by Nano-Glo HiBiT Lytic Detection Assay; assay type: cell-based
[15] = tested on: SK-MEL-28; test: Anticancer activity against human SK-MEL-28 cells harbouring wild type SMARCA4 assessed as maximal inhibition of cell growth measured after 7 days incubation by WST-8 assay relative to control; assay type: functional; conditions: time 7 day
[16] = target: T4, von Hippel-Lindau disease tumor suppressor/SWI/SNF-related matrix-associated actin-dependent regulator of chromatin subfamily A member 2; test: PROTAC activity at VHL1/SMARCA2 in human genetically modified Hela cells assessed as degradation measured after 48 hrs incubation by Nano-Glo HiBiT Lytic Detection Assay; assay type: cell-based
[17] = target: T3, von Hippel-Lindau disease tumor suppressor/SWI/SNF-related matrix-associated actin-dependent regulator of chromatin subfamily A member 4; test: PROTAC activity at VHL1/SMARCA4 in human genetically modified Hela cells assessed as maximal degradation measured after 8 hrs incubation by Nano-Glo HiBiT Lytic Detection Assay relative to control; assay type: cell-based
Target sequence in this assay (P40337 whole entry, looked up): as the sequence (P40337 whole entry, looked up) above
Target sequence in this assay (P51532 whole entry, looked up): as the sequence (P51532 whole entry, looked up) above

[18] = tested on: NCI-H1792; test: Anticancer activity against human NCI-H1792 cells harbouring wild type SMARCA4 assessed as inhibition of cell growth measured after 7 days incubation by WST-8 assay; assay type: functional; conditions: NCI-H1792, 168 h, time 7 day
[19] = target: T3, von Hippel-Lindau disease tumor suppressor/SWI/SNF-related matrix-associated actin-dependent regulator of chromatin subfamily A member 4; test: PROTAC activity at VHL1/SMARCA4 in human genetically modified Hela cells assessed as maximal degradation measured after 4 hrs incubation by Nano-Glo HiBiT Lytic Detection Assay relative to control; assay type: cell-based
Target sequence in this assay (P40337 whole entry, looked up): as the sequence (P40337 whole entry, looked up) above
Target sequence in this assay (P51532 whole entry, looked up): as the sequence (P51532 whole entry, looked up) above

[20] = target: T4, von Hippel-Lindau disease tumor suppressor/SWI/SNF-related matrix-associated actin-dependent regulator of chromatin subfamily A member 2; test: PROTAC activity at VHL1/SMARCA2 in human genetically modified Hela cells assessed as maximal degradation measured after 8 hrs incubation by Nano-Glo HiBiT Lytic Detection Assay relative to control; assay type: cell-based
Target sequence in this assay (P40337 whole entry, looked up): as the sequence (P40337 whole entry, looked up) above
Target sequence in this assay (P51531 whole entry, looked up): as the sequence (P51531 whole entry, looked up) above

[21] = tested on: SK-MEL-5; test: Anticancer activity against SMARCA4 deficient human SK-MEL-5 cells assessed as inhibition of cell growth measured after 7 days incubation by WST-8 assay; assay type: functional; conditions: SK-MEL-5, 168 h, time 7 day
[22] = Anticancer activity against SMARCA4 deficient human NCI-H838 cells assessed as maximal inhibition of cell growth measured after 7 days incubation by WST-8 assay relative to control; assay type: functional; conditions: time 7 day
[23] = target: T4, von Hippel-Lindau disease tumor suppressor/SWI/SNF-related matrix-associated actin-dependent regulator of chromatin subfamily A member 2; test: PROTAC activity at VHL1/SMARCA2 in human genetically modified Hela cells assessed as maximal degradation measured after 48 hrs incubation by Nano-Glo HiBiT Lytic Detection Assay relative to control; assay type: cell-based
Target sequence in this assay (P40337 whole entry, looked up): as the sequence (P40337 whole entry, looked up) above
Target sequence in this assay (P51531 whole entry, looked up): as the sequence (P51531 whole entry, looked up) above

[24] = target: T3, von Hippel-Lindau disease tumor suppressor/SWI/SNF-related matrix-associated actin-dependent regulator of chromatin subfamily A member 4; test: PROTAC activity at VHL1/SMARCA4 mutant in human SK-MEL-5 cells assessed as degradation measured after 24 hrs incubation by Western blot analysis; assay type: cell-based
[25] = target: T3, von Hippel-Lindau disease tumor suppressor/SWI/SNF-related matrix-associated actin-dependent regulator of chromatin subfamily A member 4; test: PROTAC activity at VHL1/SMARCA4 in human genetically modified Hela cells assessed as maximal degradation measured after 48 hrs incubation by Nano-Glo HiBiT Lytic Detection Assay relative to control; assay type: cell-based
Target sequence in this assay (P40337 whole entry, looked up): as the sequence (P40337 whole entry, looked up) above
Target sequence in this assay (P51532 whole entry, looked up): as the sequence (P51532 whole entry, looked up) above

[26] = target: T4, von Hippel-Lindau disease tumor suppressor/SWI/SNF-related matrix-associated actin-dependent regulator of chromatin subfamily A member 2; test: PROTAC activity at VHL1/SMARCA2 in human NCI-H1792 cells assessed as degradation measured after 24 hrs incubation by Western blot analysis; assay type: cell-based
[27] = target: T4, von Hippel-Lindau disease tumor suppressor/SWI/SNF-related matrix-associated actin-dependent regulator of chromatin subfamily A member 2; test: PROTAC activity at VHL1/SMARCA2 in human genetically modified Hela cells assessed as degradation measured after 4 hrs incubation by Nano-Glo HiBiT Lytic Detection Assay; assay type: cell-based
[28] = tested on: von Hippel-Lindau disease tumor suppressor/SWI/SNF-related matrix-associated actin-dependent regulator of chromatin subfamily A member 4 (Homo sapiens), P51532+P40337 [UNDEFINED MUTATION]; test: PROTAC activity at VHL1/SMARCA4 mutant in human NCI-H838 cells assessed as maximal degradation measured after 24 hrs incubation by Western blot analysis relative to control; assay type: cell-based
[29] = tested on: SK-MEL-28; test: Anticancer activity against human SK-MEL-28 cells harbouring wild type SMARCA4 assessed as inhibition of cell growth measured after 7 days incubation by WST-8 assay; assay type: functional; conditions: SK-MEL-28, 168 h, time 7 day
[30] = target: T3, von Hippel-Lindau disease tumor suppressor/SWI/SNF-related matrix-associated actin-dependent regulator of chromatin subfamily A member 4; test: PROTAC activity at VHL1/SMARCA4 in human NCI-H1792 cells assessed as maximal degradation measured after 24 hrs incubation by Western blot analysis relative to control; assay type: cell-based
[31] = target: T3, von Hippel-Lindau disease tumor suppressor/SWI/SNF-related matrix-associated actin-dependent regulator of chromatin subfamily A member 4; test: PROTAC activity at VHL1/SMARCA4 in human genetically modified Hela cells assessed as degradation measured after 48 hrs incubation by Nano-Glo HiBiT Lytic Detection Assay; assay type: cell-based
[32] = target: T3, von Hippel-Lindau disease tumor suppressor/SWI/SNF-related matrix-associated actin-dependent regulator of chromatin subfamily A member 4; test: PROTAC activity at VHL1/SMARCA4 in human genetically modified Hela cells assessed as degradation measured after 4 hrs incubation by Nano-Glo HiBiT Lytic Detection Assay; assay type: cell-based
[33] = target: T4, von Hippel-Lindau disease tumor suppressor/SWI/SNF-related matrix-associated actin-dependent regulator of chromatin subfamily A member 2; test: PROTAC activity at VHL1/SMARCA2 in human genetically modified Hela cells assessed as maximal degradation measured after 4 hrs incubation by Nano-Glo HiBiT Lytic Detection Assay relative to control; assay type: cell-based
Target sequence in this assay (P40337 whole entry, looked up): as the sequence (P40337 whole entry, looked up) above
Target sequence in this assay (P51531 whole entry, looked up): as the sequence (P51531 whole entry, looked up) above

[34] = target: T3, von Hippel-Lindau disease tumor suppressor/SWI/SNF-related matrix-associated actin-dependent regulator of chromatin subfamily A member 4; test: PROTAC activity at VHL1/SMARCA4 mutant in human NCI-H838 cells assessed as degradation measured after 24 hrs incubation by Western blot analysis; assay type: cell-based
[35] = tested on: von Hippel-Lindau disease tumor suppressor/SWI/SNF-related matrix-associated actin-dependent regulator of chromatin subfamily A member 4 (Homo sapiens), P51532+P40337 [UNDEFINED MUTATION]; test: PROTAC activity at VHL1/SMARCA4 mutant in human SK-MEL-5 cells assessed as maximal degradation measured after 24 hrs incubation by Western blot analysis relative to control; assay type: cell-based
[36] = tested on: SK-MEL-5; test: Anticancer activity against SMARCA4 deficient human SK-MEL-5 cells assessed as maximal inhibition of cell growth measured after 7 days incubation by WST-8 assay relative to control; assay type: functional; conditions: time 7 day
[37] = Anticancer activity against SMARCA4 deficient human NCI-H838 cells assessed as inhibition of cell growth measured after 7 days incubation by WST-8 assay; assay type: functional; conditions: NCI-H838, 168 h, time 7 day
[38] = target: T4, von Hippel-Lindau disease tumor suppressor/SWI/SNF-related matrix-associated actin-dependent regulator of chromatin subfamily A member 2; test: PROTAC activity at VHL1/SMARCA2 in human NCI-H1792 cells assessed as maximal degradation measured after 24 hrs incubation by Western blot analysis relative to control; assay type: cell-based
Target sequence in this assay (P40337 whole entry, looked up): as the sequence (P40337 whole entry, looked up) above
Target sequence in this assay (P51531 whole entry, looked up): as the sequence (P51531 whole entry, looked up) above

[39] = target: T4, von Hippel-Lindau disease tumor suppressor/SWI/SNF-related matrix-associated actin-dependent regulator of chromatin subfamily A member 2; test: PROTAC activity at VHL1/SMARCA2 in human genetically modified Hela cells assessed as degradation measured after 8 hrs incubation by Nano-Glo HiBiT Lytic Detection Assay; assay type: cell-based
[40] = tested on: NCI-H1792; test: Anticancer activity against human NCI-H1792 cells harbouring wild type SMARCA4 assessed as maximal inhibition of cell growth measured after 7 days incubation by WST-8 assay relative to control; assay type: functional; conditions: time 7 day

Cc1ncsc1-c1ccc([C@H](CC[C@H](C)CCN2CCC(c3ccc4c(c3)n(C3CCCC3)c3nc(=O)c5c(Br)cccc5n43)CC2)NC(=O)[C@@H]2C[C@@H](O)CN2C(=O)[C@@H](NC(=O)C2(F)CC2)C(C)(C)C)cc1
Emax [1]: 81% | DC50 [2]: 32 nM | DC50 [3]: 1 nM | Ratio [4]: 12 | Emax [5]: 86% | Emax [6]: 93% | DC50 [7]: 33 nM | DC50 [8]: 2.3 nM | Emax [9]: 67%

Cc1ncsc1-c1ccc(CNC(=O)[C@@H]2C[C@@H](O)CN2C(=O)[C@@H](NC(=O)C2(F)CC2)C(C)(C)C)c(OCCOc2ccc(CN3CCN(c4cc(-c5ccccc5O)nnc4N)CC3)cc2)c1
Emax [10]: > 95% | DC50 [11]: 11 nM | Emax [12]: > 95%

Cc1ncsc1-c1ccc([C@H](CCCCCN2CCC(c3ccc4c(c3)C3(CCCCC3)c3nc(=O)c5c(Cl)cccc5n3-4)CC2)NC(=O)[C@@H]2C[C@@H](O)CN2C(=O)[C@@H](NC(=O)C2(F)CC2)C(C)(C)C)cc1
DC50 [13]: 26 nM | DC50 [14]: 27 nM | Imax [15]: 91% | DC50 [16]: 4 nM | Emax [17]: 96% | GI50 [18]: 10.5 nM | Ratio [4]: 8 | Emax [19]: 96% | Emax [20]: 97% | Emax [5]: 96% | GI50 [21]: 1.1 nM | Imax [22]: 92% | Emax [23]: 99% | Emax [6]: 97% | DC50 [24]: 81.1 nM | DC50 [7]: 3.3 nM | Emax [25]: 98% | DC50 [26]: 1.7 nM | DC50 [27]: 10 nM | DC50 [8]: 0.4 nM | Emax [28]: 89% | GI50 [29]: 24.8 nM | Emax [30]: 99% | DC50 [31]: 27 nM | DC50 [32]: 38 nM | Emax [33]: 97% | DC50 [34]: 76.2 nM | Emax [35]: 87% | Imax [36]: 96% | GI50 [37]: 10.5 nM | Emax [38]: 99% | DC50 [39]: 6 nM | Imax [40]: 52%
